Reference: paper PMC9322189, “Development of a Personalized Tumor Neoantigen Based Vaccine Formulation (FRAME-001) for Use in a Phase II Trial for the Treatment of Advanced Non-Small Cell Lung Cancer” (Pharmaceutics, 2022)

Experiments:
Format in all cases: physicochemical
[1] = Filter experiment: peptide adsorption to the 0.22 µm sterilization filter, UPLC-MS
[2] = Release testing and long-term (frozen) stability of aqueous peptide mixtures (143 µg/mL per peptide in PBS 10 mM pH 7.0), UPLC-MS
[3] = In-use stability of thawed aqueous peptide mixtures at room temperature, UPLC-MS; conditions: 4 h room temperature
[4] = in FRM001-M1, t = 0 w, % area of peptide peak of sum of the six peptide peaks

CKECGRPLDVVHTLLHIRAFMLIKNPMNVK [FRM001P12, neoantigen peptide, in FRM001-M2]
Peak ratio ([1]; in FRM001M2, unfiltered sample): 27.7% | Peptide peak ratio ([2]; in FRM001-M2, 2 w −25 °C): 22.0% | Peptide peak ratio ([2]; in FRM001-M2, 4 w −25 °C): 19.5% | Peptide peak ratio ([2]; in FRM001-M2, 8 w −25 °C): 19.6% | Peptide peak ratio ([2]; in FRM001-M2, 8 w −80 °C): 20.5% | Peptide peak ratio ([2]; in FRM001-M2, 12 w −25 °C): 18.1% | Peptide peak ratio ([2]; in FRM001-M2, 12 w −80 °C): 20.0% | Peptide peak ratio ([2]; in FRM001-M2, 16 w −25 °C): 17.9% | Peptide peak ratio ([2]; in FRM001-M2, 16 w −80 °C): 19.5% | Peptide peak ratio ([2]; in FRM001-M2, 32 w −25 °C): 20.3% | Peptide peak ratio ([2]; in FRM001-M2, 32 w −80 °C): 22.6% | Peptide peak ratio ([2]; in FRM001-M2, t = 0 w): 24.6% | Peptide peak ratio ([3]; in FRM001-M2, 2 w −25 °C): 23.0% | Peptide peak ratio ([3]; in FRM001-M2, 4 w −25 °C): 20.5% | Peptide peak ratio ([3]; in FRM001-M2, 8 w −25 °C): 21.0% | Peptide peak ratio ([3]; in FRM001-M2, 8 w −80 °C): 21.0% | Peptide peak ratio ([3]; in FRM001-M2, 12 w −25 °C): 19.7% | Peptide peak ratio ([3]; in FRM001-M2, 12 w −80 °C): 20.6% | Peptide peak ratio ([3]; in FRM001-M2, 16 w −25 °C): 18.9% | Peptide peak ratio ([3]; in FRM001-M2, 16 w −80 °C): 20.0% | Peptide peak ratio ([3]; in FRM001-M2, 32 w −25 °C): 22.7% | Peptide peak ratio ([3]; in FRM001-M2, 32 w −80 °C): 24.2%

GCHLFSKRKCSQNKQSKRGKSRFYLSWRPL [FRM001P01, neoantigen peptide of lung tumor LUN021, in FRM001-M1 and FRM001-M4]
Peak ratio ([1]; in FRM001M1, unfiltered sample): 14.8% | Peak ratio ([1]; in FRM001M4, unfiltered sample): 14.9% | Peptide peak ratio ([2]; in FRM001-M1, 2 w −25 °C): 15.0% | Peptide peak ratio ([2]; in FRM001-M1, 4 w −25 °C): 14.6% | Peptide peak ratio ([2]; in FRM001-M1, 8 w −25 °C): 15.2% | Peptide peak ratio ([2]; in FRM001-M1, 8 w −80 °C): 15.0% | Peptide peak ratio ([2]; in FRM001-M1, 12 w −25 °C): 15.9% | Peptide peak ratio ([2]; in FRM001-M1, 12 w −80 °C): 15.5% | Peptide peak ratio ([2]; in FRM001-M1, 16 w −25 °C): 15.4% | Peptide peak ratio ([2]; in FRM001-M1, 16 w −80 °C): 15.3% | Peptide peak ratio ([2]; in FRM001-M1, 32 w −25 °C): 13.4% | Peptide peak ratio ([2]; in FRM001-M1, 32 w −80 °C): 14.2% | Peptide peak ratio [2, 4]: 15.0% | Peptide peak ratio ([2]; in FRM001-M4, 2 w −25 °C): 14.5% | Peptide peak ratio ([2]; in FRM001-M4, 4 w −25 °C): 15.4% | Peptide peak ratio ([2]; in FRM001-M4, 8 w −25 °C): 15.1% | Peptide peak ratio ([2]; in FRM001-M4, 8 w −80 °C): 15.2% | Peptide peak ratio ([2]; in FRM001-M4, 12 w −25 °C): 15.1% | Peptide peak ratio ([2]; in FRM001-M4, 12 w −80 °C): 14.8% | Peptide peak ratio ([2]; in FRM001-M4, 16 w −25 °C): 12.5% | Peptide peak ratio ([2]; in FRM001-M4, 16 w −80 °C): 12.5% | Peptide peak ratio ([2]; in FRM001-M4, 32 w −25 °C): 12.9% | Peptide peak ratio ([2]; in FRM001-M4, 32 w −80 °C): 14.7% | Peptide peak ratio ([2]; in FRM001-M4, t = 0 w): 14.4% | Peptide peak ratio ([3]; in FRM001-M1, 2 w −25 °C): 15.2% | Peptide peak ratio ([3]; in FRM001-M1, 4 w −25 °C): 14.8% | Peptide peak ratio ([3]; in FRM001-M1, 8 w −25 °C): 15.3% | Peptide peak ratio ([3]; in FRM001-M1, 8 w −80 °C): 15.2% | Peptide peak ratio ([3]; in FRM001-M1, 12 w −25 °C): 15.3% | Peptide peak ratio ([3]; in FRM001-M1, 12 w −80 °C): 15.3% | Peptide peak ratio ([3]; in FRM001-M1, 16 w −25 °C): 15.5% | Peptide peak ratio ([3]; in FRM001-M1, 16 w −80 °C): 15.6% | Peptide peak ratio ([3]; in FRM001-M1, 32 w −25 °C): 14.1% | Peptide peak ratio ([3]; in FRM001-M1, 32 w −80 °C): 14.1% | Peptide peak ratio ([3]; in FRM001-M4, 2 w −25 °C): 14.7% | Peptide peak ratio ([3]; in FRM001-M4, 4 w −25 °C): 15.5% | Peptide peak ratio ([3]; in FRM001-M4, 8 w −25 °C): 15.3% | Peptide peak ratio ([3]; in FRM001-M4, 8 w −80 °C): 15.5% | Peptide peak ratio ([3]; in FRM001-M4, 12 w −25 °C): 14.8% | Peptide peak ratio ([3]; in FRM001-M4, 12 w −80 °C): 15.1% | Peptide peak ratio ([3]; in FRM001-M4, 16 w −25 °C): 12.4% | Peptide peak ratio ([3]; in FRM001-M4, 16 w −80 °C): 12.4% | Peptide peak ratio ([3]; in FRM001-M4, 32 w −25 °C): 13.1% | Peptide peak ratio ([3]; in FRM001-M4, 32 w −80 °C): 14.9%

GVDYASCGHLVKIWPRRMNRSDVCTVWS [FRM001P13, neoantigen peptide, in FRM001-M4]
Peak ratio ([1]; in FRM001M4, unfiltered sample): 14.1% | Peptide peak ratio ([2]; in FRM001-M4, 2 w −25 °C): 13.6% | Peptide peak ratio ([2]; in FRM001-M4, 4 w −25 °C): 14.6% | Peptide peak ratio ([2]; in FRM001-M4, 8 w −25 °C): 14.7% | Peptide peak ratio ([2]; in FRM001-M4, 8 w −80 °C): 14.9% | Peptide peak ratio ([2]; in FRM001-M4, 12 w −25 °C): 14.4% | Peptide peak ratio ([2]; in FRM001-M4, 12 w −80 °C): 14.6% | Peptide peak ratio ([2]; in FRM001-M4, 16 w −25 °C): 13.3% | Peptide peak ratio ([2]; in FRM001-M4, 16 w −80 °C): 13.1% | Peptide peak ratio ([2]; in FRM001-M4, 32 w −25 °C): 13.6% | Peptide peak ratio ([2]; in FRM001-M4, 32 w −80 °C): 13.9% | Peptide peak ratio ([2]; in FRM001-M4, t = 0 w): 14.2% | Peptide peak ratio ([3]; in FRM001-M4, 2 w −25 °C): 13.4% | Peptide peak ratio ([3]; in FRM001-M4, 4 w −25 °C): 14.5% | Peptide peak ratio ([3]; in FRM001-M4, 8 w −25 °C): 14.4% | Peptide peak ratio ([3]; in FRM001-M4, 8 w −80 °C): 14.7% | Peptide peak ratio ([3]; in FRM001-M4, 12 w −25 °C): 14.6% | Peptide peak ratio ([3]; in FRM001-M4, 12 w −80 °C): 14.4% | Peptide peak ratio ([3]; in FRM001-M4, 16 w −25 °C): 13.1% | Peptide peak ratio ([3]; in FRM001-M4, 16 w −80 °C): 13.0% | Peptide peak ratio ([3]; in FRM001-M4, 32 w −25 °C): 13.5% | Peptide peak ratio ([3]; in FRM001-M4, 32 w −80 °C): 13.4%

NTDPSCSCVTPLDFNHCLKNREDNGLPMLS [FRM001P10, neoantigen peptide, in FRM001-M2]
Peak ratio ([1]; in FRM001M2, unfiltered sample): 6.1% | Peptide peak ratio ([2]; in FRM001-M2, 2 w −25 °C): 7.2% | Peptide peak ratio ([2]; in FRM001-M2, 4 w −25 °C): 11.5% | Peptide peak ratio ([2]; in FRM001-M2, 8 w −25 °C): 11.0% | Peptide peak ratio ([2]; in FRM001-M2, 8 w −80 °C): 12.9% | Peptide peak ratio ([2]; in FRM001-M2, 12 w −25 °C): 14.2% | Peptide peak ratio ([2]; in FRM001-M2, 12 w −80 °C): 13.8% | Peptide peak ratio ([2]; in FRM001-M2, 16 w −25 °C): 9.6% | Peptide peak ratio ([2]; in FRM001-M2, 16 w −80 °C): 10.4% | Peptide peak ratio ([2]; in FRM001-M2, 32 w −25 °C): 10.8% | Peptide peak ratio ([2]; in FRM001-M2, 32 w −80 °C): 10.7% | Peptide peak ratio ([2]; in FRM001-M2, t = 0 w): 9.1% | Peptide peak ratio ([3]; in FRM001-M2, 2 w −25 °C): 8.9% | Peptide peak ratio ([3]; in FRM001-M2, 4 w −25 °C): 12.1% | Peptide peak ratio ([3]; in FRM001-M2, 8 w −25 °C): 12.1% | Peptide peak ratio ([3]; in FRM001-M2, 8 w −80 °C): 12.0% | Peptide peak ratio ([3]; in FRM001-M2, 12 w −25 °C): 13.7% | Peptide peak ratio ([3]; in FRM001-M2, 12 w −80 °C): 13.2% | Peptide peak ratio ([3]; in FRM001-M2, 16 w −25 °C): 10.2% | Peptide peak ratio ([3]; in FRM001-M2, 16 w −80 °C): 10.1% | Peptide peak ratio ([3]; in FRM001-M2, 32 w −25 °C): 9.6% | Peptide peak ratio ([3]; in FRM001-M2, 32 w −80 °C): 9.3%

RHSPNGNGPRSQHHSLITTNTDPSCSCVT [FRM001P14, neoantigen peptide, in FRM001-M1]
Peak ratio ([1]; in FRM001M1, filtered (0.22 µm Millex GV)): 10.8% | Peak ratio ([1]; in FRM001M1, unfiltered sample): 10.9% | Peptide peak ratio ([2]; in FRM001-M1, 2 w −25 °C): 11.2% | Peptide peak ratio ([2]; in FRM001-M1, 4 w −25 °C): 10.5% | Peptide peak ratio ([2]; in FRM001-M1, 8 w −25 °C): 10.9% | Peptide peak ratio ([2]; in FRM001-M1, 8 w −80 °C): 10.8% | Peptide peak ratio ([2]; in FRM001-M1, 12 w −25 °C): 11.9% | Peptide peak ratio ([2]; in FRM001-M1, 16 w −25 °C): 10.1% | Peptide peak ratio ([2]; in FRM001-M1, 16 w −80 °C): 10.7% | Peptide peak ratio ([2]; in FRM001-M1, 32 w −25 °C): 7.5% | Peptide peak ratio ([2]; in FRM001-M1, 32 w −80 °C): 11.8% | Peptide peak ratio [2, 4]: 10.8% | Peptide peak ratio ([3]; in FRM001-M1, 2 w −25 °C): 11.3% | Peptide peak ratio ([3]; in FRM001-M1, 4 w −25 °C): 10.5% | Peptide peak ratio ([3]; in FRM001-M1, 8 w −25 °C): 10.8% | Peptide peak ratio ([3]; in FRM001-M1, 8 w −80 °C): 10.7% | Peptide peak ratio ([3]; in FRM001-M1, 12 w −25 °C): 11.2% | Peptide peak ratio ([3]; in FRM001-M1, 12 w −80 °C): 11.2% | Peptide peak ratio ([3]; in FRM001-M1, 16 w −25 °C): 10.5% | Peptide peak ratio ([3]; in FRM001-M1, 16 w −80 °C): 10.6% | Peptide peak ratio ([3]; in FRM001-M1, 32 w −25 °C): 10.9% | Peptide peak ratio ([3]; in FRM001-M1, 32 w −80 °C): 11.5%
